IC50 and GI50 data for nine molecules are collected here from patent US12479845B2, “Imidazopyridine derivative compounds and use of same” (HANMI PHARM. CO., LTD., priority 2019, dated 2025).

One test has as its target LSD1 (Homo sapiens (Human), UniProt O60341). The test is described as follows: Biochemical analysis of LSD1 histone demethylase inhibition (BPS Bioscience LSD1 fluorescence analysis kit, HRP/Amplex Red). The note with it: demethylation of Lys4 of histone H3. The procedure:
The biochemical inhibition activity of the synthesized compounds on LSD1 was measured. The activity measurement was performed using LSD1 fluorescence analysis kit (available from BPS Bioscience Co., Ltd., Catalog No: 50106). This analysis kit is designed to measure activity of LSD1 enzyme. H2O2 generated upon demethylation of Lys4 moiety of histone H3 by LSD1 is reacted with HRP/Amplex Red reagent to form fluorescent Resorufin, which is measured by this kit, thereby confirming demethylation.
The results are expressed as an IC50 value. As for a control, GSK2879552 (available from GlaxoSmithKline USA) was used.

A further test has as its system NCI-H1417 cells. The test is described as follows: Cell growth suppression test (CellTiter-Glo Luminescent Cell Viability Assay, 10 days treatment). Type of test: cell-based. The note with it: Homo sapiens, 240 h, treated for 10 days. How it is done: Cell growth suppression effects of the synthesized compounds on NCI-H1417 cells were identified. The cells were treated with the synthesized compounds for 10 days. Then, in order to test the cell growth suppression, CellTiter-Glo Luminescent Cell Viability Assay (available from Promega, USA) was used. This test is to measure emission signals proportional to the number of ATPs based on a fixed amount of ATPs, which represents the presence of metabolically active cells, thereby determining the number of viable cells. The results are expressed as a Gl50 value. As for a control, GSK2879552 (available from GlaxoSmithKline USA) was used.

In general, IC50 refers to the midpoint of a concentration-inhibition curve. High values mean lower potency, low ones higher potency. Broadly, the GI50 is the concentration giving 50% growth inhibition. `CC(=O)O[C@H]1CCN(c2ccc(-n3c(-c4ccc(C#N)c(F)c4)nc4c(N5CCC[C@@H](N)C5)ccnc43)c(F)c2)C1` [Example 32, (S)-1-(4-(7-((R)-3-aminopiperidine-1-yl)-2-(4-cyano-3-fluorophenyl)-3H-imidazo[4,5-b]pyridine-3-yl)-3-fluorophenyl)pyrrolidine-3-yl acetate] yielded an IC50 against LSD1 of 38 nM. This molecule also yielded a GI50 with NCI-H1417 cells of 46 nM.

In turn, `N#Cc1ccc(-c2nc3c(N4CCC[C@@H](N)C4)ccnc3n2-c2ccc(N3CC[C@H](Cl)C3)cc2F)cc1F` [Example 36, 4-(7-((R)-3-aminopiperidine-1-yl)-3-(4-((S)-3-chloropyrrolidine-1-yl)-2-fluorophenyl)-3H-imidazo[4,5-b]pyridine-2-yl)-2-fluorobenzonitrile] returned an IC50 on LSD1 of 26 nM. Moreover, in the test with NCI-H1417 cells, the concentration for 50% growth inhibition (GI50) stood at 26 nM.

For the molecule `CCO[C@H]1CCN(c2ccc(-n3c(-c4ccc(C#N)c(F)c4)nc4c(N5CCC[C@@H](N)C5)ccnc43)c(F)c2)C1` [Example 39], the IC50 at LSD1 turned out to be 25 nM. In the test with NCI-H1417 cells, this molecule displayed a GI50 of 3.6 nM.

For the molecule `N#Cc1ccc(-c2nc3c(N4CCC[C@@H](N)C4)ccnc3n2-c2ccc(N3CC4COCC4C3)cc2F)cc1F` (stereo partly drawn) [Example 49, 4-(7-((R)-3-aminopiperidine-1-yl)-3-(2-fluoro-4-(tetrahydro-1H-furo[3,4-c]pyrrole-5(3H)-yl)phenyl)-3H-imidazo[4,5-b]pyridine-2-yl)-2-fluorobenzonitrile], the concentration for half-maximal inhibition (IC50) against LSD1 stood at 30 nM. The GI50 with NCI-H1417 cells turned out to be 5.3 nM.

On LSD1, `CO[C@H]1CCN(c2ccc(-n3c(-c4ccc(C#N)c(F)c4)nc4c(N5CCC6(CCNC6)CC5)ccnc43)c(F)c2)C1` [Example 60, (S)-2-fluoro-4-(3-(2-fluoro-4-(3-methoxypyrrolidine-1-yl)phenyl)-7-(2,8-diazaspiro[4.5]decane-8-yl)-3H-imidazo[4,5-b]pyridine-2-yl)benzonitrile] gave an IC50 of 100 nM. The molecule also gave a GI50 with NCI-H1417 cells of 32 nM.

Consider `CO[C@H]1CCN(c2ccc(-n3c(-c4ccc(C#N)c(F)c4)nc4c(N5CCC6CCNC6C5)ccnc43)c(F)c2)C1` (stereo partly drawn) [Example 61, 2-fluoro-4-(3-(2-fluoro-4-((S)-3-methoxypyrrolidine-1-yl)phenyl)-7-(octahydro-6H-pyrrolo[2,3-c]pyridine-6-yl)-3H-imidazo[4,5-b]pyridine-2-yl)benzonitrile], for which, at LSD1, the IC50 is 38 nM. The 50% growth inhibitory concentration (GI50) in the test with NCI-H1417 cells was determined as 11 nM.

As for `CO[C@H]1CCN(c2ccc(-n3c(-c4ccc(C#N)c(F)c4)nc4c(N5CCC[C@H](N)C5)ccnc43)c(F)c2)C1` [Example 62, 4-(7-((S)-3-aminopiperidine-1-yl)-3-(2-fluoro-4-((S)-3-methoxypyrrolidine-1-yl)phenyl)-3H-imidazo[4,5-b]pyridine-2-yl)-2-fluorobenzonitrile], the IC50 against LSD1 came out at 36 nM. Further, the GI50 with NCI-H1417 cells stood at 20 nM.

`CO[C@H]1CCN(c2ccc(-n3c(-c4ccc(C#N)c(F)c4)nc4c(N5CCC(N)C5)ccnc43)c(F)c2)C1` (stereo partly drawn) [Example 64, 4-(7-(3-aminopyrrolidine-1-yl)-3-(2-fluoro-4-((S)-3-methoxypyrrolidine-1-yl)phenyl)-3H-imidazo[4,5-b]pyridine-2-yl)-2-fluorobenzonitrile]: at LSD1, half-maximal inhibition (IC50) required 24 nM. In the test on NCI-H1417 cells, this molecule displayed a GI50 of 14 nM.

In turn, `CO[C@H]1CCN(c2ccc(-n3c(-c4ccc(C#N)c(F)c4)nc4c(N5CCCC[C@@H](N)C5)ccnc43)c(F)c2)C1` [Example 67, 4-(7-((R)-3-aminoazepane-1-yl)-3-(2-fluoro-4-((S)-3-methoxypyrrolidine-1-yl)phenyl)-3H-imidazo[4,5-b]pyridine-2-yl)-2-fluorobenzonitrile] registered an IC50 against LSD1 of 30 nM. This molecule displayed a 50% growth inhibitory concentration (GI50) in the test with NCI-H1417 cells of 2.7 nM.
